This passage reports IC50 results from patent publication US20220388964A1 (HiberCell, Inc., priority 2019, published 2022).

pIC50: −log10 of the molar value.

GCN2, sequence (Q9P2K8 whole entry): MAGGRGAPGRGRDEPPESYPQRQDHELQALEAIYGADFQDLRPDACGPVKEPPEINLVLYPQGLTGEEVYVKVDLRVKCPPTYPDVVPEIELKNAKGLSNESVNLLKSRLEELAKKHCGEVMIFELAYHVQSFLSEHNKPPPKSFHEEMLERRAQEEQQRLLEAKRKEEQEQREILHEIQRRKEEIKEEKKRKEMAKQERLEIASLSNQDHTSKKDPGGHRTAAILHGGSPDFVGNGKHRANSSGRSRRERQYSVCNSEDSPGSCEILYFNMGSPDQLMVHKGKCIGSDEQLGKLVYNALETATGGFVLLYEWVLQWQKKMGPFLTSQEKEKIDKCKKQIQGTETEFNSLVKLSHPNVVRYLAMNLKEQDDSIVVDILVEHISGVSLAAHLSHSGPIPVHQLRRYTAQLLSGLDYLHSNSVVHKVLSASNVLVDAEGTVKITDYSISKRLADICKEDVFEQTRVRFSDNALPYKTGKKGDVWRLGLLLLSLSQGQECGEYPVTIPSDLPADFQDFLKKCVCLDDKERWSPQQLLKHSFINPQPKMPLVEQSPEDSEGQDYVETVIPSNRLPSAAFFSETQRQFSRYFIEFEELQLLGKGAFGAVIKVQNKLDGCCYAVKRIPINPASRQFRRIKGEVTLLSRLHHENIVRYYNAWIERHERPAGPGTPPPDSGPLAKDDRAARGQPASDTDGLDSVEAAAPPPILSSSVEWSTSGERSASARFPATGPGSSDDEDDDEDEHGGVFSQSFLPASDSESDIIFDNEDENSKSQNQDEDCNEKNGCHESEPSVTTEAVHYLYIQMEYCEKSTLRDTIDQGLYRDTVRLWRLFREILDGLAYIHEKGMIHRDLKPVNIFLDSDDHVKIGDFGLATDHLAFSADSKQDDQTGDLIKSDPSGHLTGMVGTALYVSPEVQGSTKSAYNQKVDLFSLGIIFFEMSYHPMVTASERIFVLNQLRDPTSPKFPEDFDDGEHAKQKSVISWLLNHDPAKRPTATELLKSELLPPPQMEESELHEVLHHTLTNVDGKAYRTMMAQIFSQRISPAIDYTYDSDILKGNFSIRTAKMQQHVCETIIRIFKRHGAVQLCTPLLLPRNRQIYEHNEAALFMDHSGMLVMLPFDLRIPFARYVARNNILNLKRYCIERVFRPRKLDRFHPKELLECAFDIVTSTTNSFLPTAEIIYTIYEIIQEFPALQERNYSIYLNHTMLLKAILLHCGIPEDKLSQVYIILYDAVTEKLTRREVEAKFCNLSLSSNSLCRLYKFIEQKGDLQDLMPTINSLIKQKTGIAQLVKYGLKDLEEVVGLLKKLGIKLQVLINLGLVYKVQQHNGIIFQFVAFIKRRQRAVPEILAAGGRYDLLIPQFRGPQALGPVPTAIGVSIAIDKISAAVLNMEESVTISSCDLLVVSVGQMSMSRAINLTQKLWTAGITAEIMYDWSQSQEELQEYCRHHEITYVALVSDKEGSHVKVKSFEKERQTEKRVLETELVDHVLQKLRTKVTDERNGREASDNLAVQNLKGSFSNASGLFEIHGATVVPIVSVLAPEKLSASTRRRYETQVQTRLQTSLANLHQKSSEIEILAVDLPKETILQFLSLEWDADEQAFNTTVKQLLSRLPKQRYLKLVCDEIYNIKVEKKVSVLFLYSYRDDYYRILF

One assay concerns the target GCN2 (Homo sapiens, UniProt Q9P2K8). Kind of assay: TR-FRET biochemical assay for inhibition of GCN2 (Example 106, for Example 1-4BB). The settings on record: Table 8.
The compound `Cn1nncc1S(=O)(=O)Nc1ccc(F)c(-c2ccc3c(-c4ncc[nH]4)n[nH]c3c2F)c1F` [Example 2X, N-(2,4-difluoro-3-(7-fluoro-3-(1H-imidazol-2-yl)-1H-indazol-6-yl)phenyl)-1-methyl-1H-1,2,3-triazole-5-sulfonamide] had a pIC50 of 5.00 to 5.60.
The compound `Cn1ccnc1S(=O)(=O)Nc1ccc(F)c(-c2ccc3c(-c4ncc[nH]4)n[nH]c3c2F)c1F` [Example 2S, N-(2,4-difluoro-3-(7-fluoro-3-(1H-imidazol-2-yl)-1H-indazol-6-yl)phenyl)-1-methyl-1H-imidazole-2-sulfonamide] showed a pIC50 of 5.00 to 5.60.
The same measure, in the same setting: the value for `COc1ncc(Cl)cc1S(=O)(=O)Nc1ccnc(-c2ccc3c(-c4ncc[nH]4)n[nH]c3c2)c1F` [Example 2CB, N-(2-(3-(1H-imidazol-2-yl)-1H-indazol-6-yl)-3-fluoro-pyridin-4-yl)-5-chloro-2-methoxypyridinc-3-sulfonamide] was greater than 6.30; that for `COc1ncc(Cl)cc1S(=O)(=O)Nc1cccc(-c2ccc3c(-c4ncc[nH]4)n[nH]c3c2F)c1F` [Example 2M, 5-chloro-N-(2-fluoro-3-(7-fluoro-3-(1H-imidazol-2-yl)-1H-indazol-6-yl)phenyl)-2-methoxy-pyridine-3-sulfonamide] was greater than 6.30; that for `O=S(=O)(Nc1ccc(F)c(-c2ccc3cn[nH]c3c2)c1F)c1cc(Cl)ccc1Cl` [Example 2BX, 2,5-dichloro-N-(2,4-difluoro-3-(1H-indazol-6-yl)phenyl)benzenesulfonamide] was 5.60 to 6.30.
In the case of `Cc1nn(C(F)F)cc1S(=O)(=O)Nc1ccc(F)c(-c2ccc3c(-c4ncc[nH]4)n[nH]c3c2F)c1F` [Example 2BU, N-(2,4-difluoro-3-(7-fluoro-3-(1H-imidazol-2-yl)-1H-indazol-6-yl)phenyl)-1-(difluoromethyl)-3-methyl-1H-pyrazole-4-sulfonamide], the pIC50 was greater than 6.30.
Same read-out and setting: as for `COc1nn(C)cc1S(=O)(=O)Nc1ccc(F)c(-c2ccc3c(-c4ncc[nH]4)n[nH]c3c2F)c1F` [Example 2K, N-(2,4-difluoro-3-(7-fluoro-3-(1H-imidazol-2-yl)-1H-indazol-6-yl)phenyl)-3-methoxy-1-methyl-1H-pyrazole-4-sulfonamide], the figure is 5.60 to 6.30; as for `O=S(=O)(Nc1ccc(F)c(-c2ccc3c(-c4ncc[nH]4)n[nH]c3c2F)c1F)c1cccc(O)c1F` [Example 2AQ, N-(2,4-difluoro-3-(7-fluoro-3-(1H-imidazol-2-yl)-1H-indazol-6-yl)phenyl)-2-fluoro-3-hydroxybenzene-sulfonamide], greater than 6.30.
`CC(C)c1ccc(S(=O)(=O)Nc2ccc(F)c(-c3ccc4c(-c5ncc[nH]5)n[nH]c4c3F)c2F)cc1` [Example 2G, N-(2,4-difluoro-3-(7-fluoro-3-(1H-imidazol-2-yl)-1H-indazol-6-yl)phenyl)-4-isopropyl-benzenesulfonamide] had a pIC50 of less than 5.00.
Same read-out and setting: as for `COc1ncc(Cl)cc1S(=O)(=O)Nc1cccc(-c2ccc3c(-c4ncc[nH]4)n[nH]c3c2F)c1C#N` [Example 2AD, 5-chloro-N-(2-cyano-3-(7-fluoro-3-(1H-imidazol-2-yl)-1H-indazol-6-yl)phenyl)-2-methoxypyridine-3-sulfonamide], the figure is greater than 6.30.

The assay is the same for the next values; noted with them: Table 9.
In turn, `COc1ncc(Cl)cc1S(=O)(=O)Nc1cc(F)cc(-c2ccc3c(C(=O)NCCCN(C)C)n[nH]c3c2F)c1F` [Example 3BB, 6-(3-((5-chloro-2-methoxy-pyridine)-3-sulfonamido)-2,5-difluorophenyl)-N-(3-(dimethylamino)propyl)-7-fluoro-1H-indazole-3-carboxamide] showed a negative-log IC50 (pIC50) greater than 6.30.
Turning to `COc1ncc(F)cc1S(=O)(=O)Nc1ncc(F)c(-c2ccc3c(C(N)=O)n[nH]c3c2)c1F` [Example 3P, 6-(3,5-difluoro-2-((5-fluoro-2-methoxypyridine)-3-sulfonamido)pyridin-4-yl)-1H-indazole-3-carboxamide], the pIC50 is less than 5.00.
Still for that read-out and setting: as for `COc1ncc(F)cc1S(=O)(=O)Nc1cccc(-c2ccc3c(C(=O)NCCCO)n[nH]c3c2F)c1F` [Example 26, 7-Fluoro-6-(2-fluoro-3-((5-fluoro-2-methoxypyridine)-3-sulfonamido)phenyl)-N-(3-hydroxypropyl)-1H-indazole-3-carboxamide], the figure is greater than 6.30; as for `COc1ncc(F)cc1S(=O)(=O)Nc1ccc(F)c(-c2ccc3c(-c4nc(Cl)c[nH]4)n[nH]c3c2F)c1F` [Example 17, N-(3-(3-(4-Chloro-1H-imidazol-2-yl)-7-fluoro-1H-indazol-6-yl)-2,4-difluorophenyl)-5-fluoro-2-methoxypyridine-3-sulfonamide], greater than 6.30; as for `COc1ncc(F)cc1S(=O)(=O)Nc1cccc(-c2ccc3c(-c4ncc[nH]4)n[nH]c3c2F)c1F` [Example 3V, N-(2-fluoro-3-(7-fluoro-3-(1H-imidazol-2-yl)-1H-indazol-6-yl)phenyl)-5-fluoro-2-methoxypyridine-3-sulfonamide], greater than 6.30.
On the same count and under the same terms, the value for `Cc1ncc(S(=O)(=O)Nc2cc(F)cc(-c3ccc4c(-c5ncc[nH]5)n[nH]c4c3F)c2F)s1` [Example 3CJ, N-(2,5-difluoro-3-(7-fluoro-3-(1H-imidazol-2-yl)-1H-indazol-6-yl)phenyl)-2-methylthiazole-5-sulfonamide] was 5.60 to 6.30; that for `Cc1ncccc1S(=O)(=O)Nc1ncc(F)c(-c2ccc3c(-c4ncc[nH]4)n[nH]c3c2F)c1F` [Example 3L, N-(3,5-difluoro-4-(7-fluoro-3-(1H-imidazol-2-yl)-1H-indazol-6-yl)pyridin-2-yl)-2-methylpyridine-3-sulfonamide] was less than 5.00.
Turning to `COc1ncc(F)cc1S(=O)(=O)Nc1ccc(F)c(-c2ccc3c(-c4nc(C#N)c[nH]4)n[nH]c3c2F)c1F` [Example 19, N-(3-(3-(4-Cyano-1H-imidazol-2-yl)-7-fluoro-1H-indazol-6-yl)-2,4-difluorophenyl)-5-fluoro-2-methoxypyridine-3-sulfonamide], the pIC50 was greater than 6.30.
The same measure, in the same setting: as for `COc1ncc(F)cc1S(=O)(=O)Nc1ncc(F)c(-c2ccc3c(-c4ncc[nH]4)n[nH]c3c2F)c1F` [Example 28, N-(3,5-Difluoro-4-(7-fluoro-3-(1H-imidazol-2-yl)-1H-indazol-6-yl)pyridin-2-yl)-5-fluoro-2-methoxypyridine-3-sulfonamide], the figure is greater than 6.30; as for `COc1ncc(F)cc1S(=O)(=O)Nc1cc(F)cc(-c2ccc3c(-c4ncc[nH]4)n[nH]c3c2F)c1F` [Example 3AS, N-(2,5-difluoro-3-(7-fluoro-3-(1H-imidazol-2-yl)-1H-indazol-6-yl)phenyl)-5-fluoro-2-methoxypyridine-3-sulfonamide], greater than 6.30.
Regarding `COc1ncc(F)cc1S(=O)(=O)Nc1cc(F)cc(-c2ccc3c(C(=O)NCCCN(C)C)n[nH]c3c2F)c1F` [Example 3BK, 6-(3-((5-fluoro-2-methoxy-pyridine)-3-sulfonamido)-2,5-difluorophenyl)-N-(3-(dimethylamino)propyl)-7-fluoro-1H-indazole-3-carboxamide], the pIC50 is greater than 6.30.
Compound `COc1ncc(F)cc1S(=O)(=O)Nc1ccc(F)c(-c2ccc3c(C(N)=O)n[nH]c3c2F)c1F` [Example 3T, 6-(2,6-difluoro-3-((5-fluoro-2-methoxypyridine)-3-sulfonamido)phenyl)-7-fluoro-1H-indazole-3-carboxamide] showed a pIC50 greater than 6.30.
The same measure, in the same setting: the value for `Cc1ncc(C#N)cc1S(=O)(=O)Nc1ccc(F)c(-c2ccc3c(C(N)=O)n[nH]c3c2F)c1F` [Example 4E] was greater than 6.30.

One may read the pIC50 as the negative decadic logarithm of the IC50, by convention in mol/L. A lower pIC50 goes with a high IC50.
